# Marks after values point to notes of the source that are not given here.
# Experiments:
# Type in all cases: in vivo
# [1] = tested on: rats; assay: Survival rate after acute coronary ligature, method of I. Lepran et al.; settings: 100.0 mg/kg orally 5 minutes before ligature
# Text: (§1) In particular, they have a pronounced cardiovascular action. On isolated strips of veins from dogs, they act against the K⁺-induced contraction in a lower concentration than on aorta strips. On isolated hearts from guinea pigs, they increase coronary flow as a function of the dose. On anesthetized rats, they prevent lypressin coronary spasm as a function of the dose and significiantly increase the survival rate of rats following acute cardiac infarction. On normotensive conscious dogs, they lower the systolic blood pressure for a period of 6-8 hours after oral administration. On artifically respirated anesthetized, thoraxotomized dogs, they reduce the mean arterial pressure, the left ventricular systolic pressure, the left ventricular end diastolic pressure and the pressure in the Arteria pulmonalis and reduce the peripheral vascular resistance. In contrast to the known organic nitrate esters, they also lead to a long-lasting reduction in the systolic blood pressure of spontaneously hypertensive rats. Such an action profile is not known for any of the substances of similar structure which have already been described.
# [2] = tested on: Mice; assay: Peroral tolerance in mice; settings: 500 mg/kg perorally, mice
# Text: Set forth below is data obtained on the compounds of Examples 17, 19 and 20 that illustrates the pharmacological action of the compounds of the present invention.
# [3] = tested on: conscious beagle dogs; assay: Systolic blood pressure and heart rate following peroral administration; settings: 5.0 mg/kg peroral, mean ± SEM
# Text: as §1
# [4] = tested on: anesthetized rat; assay: Lypressin-induced T-wave increase in the ECG (lypressin coronary spasm), method of M. Leitold et al.
# Text: as §1
smiles,measurement,setting,value
"COc1ccccc1N1CCN(CC(O)CO[C@@H]2CO[C@H]3[C@@H]2OC[C@H]3O[N+](=O)[O-])CC1 (some centres unmarked) [Example 19, 5-O-<3-[4-(2-Methoxyphenyl)-piperzinyl]-2-hydroxypropyl>-isomannide-2-nitrate]","Number of rats surviving after an acute coronary ligature, 24 hours",[1]; control 21/80,15/20*
same,"Number of rats surviving after an acute coronary ligature, 7 days",[1]; control 21/80,15/20*
same,"Number of rats surviving after an acute coronary ligature, 60 minutes",[1]; control 23/80,15/20*
same,"tolerance (clinical symptoms, fatal consequences)",[2],without clinical symptoms and without fatal consequences
same,"HR (heart rate), Action of substance after 1 hours",[3],101 ± 5 Bts/M
same,"HR (heart rate), Action of substance after 2 hours",[3],90 ± 5 Bts/M
same,"HR (heart rate), Action of substance after 4 hours",[3],85 ± 5 Bts/M
same,"HR (heart rate), Action of substance after 6 hours",[3],86 ± 5 Bts/M
same,"SBP (systolic blood pressure), Action of substance after 1 hours",[3],105 ± 8 mmHg
same,"SBP (systolic blood pressure), Action of substance after 2 hours",[3],105 ± 5 mmHg
same,"SBP (systolic blood pressure), Action of substance after 4 hours",[3],118 ± 6 mmHg
same,"SBP (systolic blood pressure), Action of substance after 6 hours",[3],126 ± 6 mmHg
same,ED50,"[4]; Rattus norvegicus, po, 0.5 h, perorally 30 minutes before the lypressin injection, dose column in mg/kg",46.7 mg/kg
same,Duration of action at the ED50 dose,[4]; perorally at various times before the lypressin injection,4 h
